According to the supplement of paper PMC10307832:

Columns and labels:
Assay in all cases: relative viability (nuclei count vs DMSO), 5 days (fraction); higher = more cells survive
NCI-H1792 = test system: NCI-H1792
Procedure, shortened: (§1)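 Lung cancer cell lines in 1536-well plates got either a single drug or a fixed anchor-drug dose together with five library-drug doses (not always all listed) in √10 steps, by pin tool, on the day after seeding. Nuclei were counted after 5 days, and relative viability is the treated-to-vehicle ratio of nuclei counts. Values are medians of duplicate plates.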

NCI-H2087 = test system: NCI-H2087
Procedure, shortened: as §1

SW 1573 = test system: SW 1573
Procedure, shortened: as §1

NCI-H1650 = test system: NCI-H1650
Procedure, shortened: as §1

NCI-H2126 = test system: NCI-H2126
Procedure, shortened: as §1

LU99A = test system: LU99A
Procedure, shortened: as §1

NCI-H1944 = test system: NCI-H1944
Procedure, shortened: as §1

NCI-H727 = test system: NCI-H727
Procedure, shortened: as §1

RERF-LC-KJ = test system: RERF-LC-KJ
Procedure, shortened: as §1

EPLC-272H = test system: EPLC-272H
Procedure, shortened: as §1

LCLC-97TM1 = test system: LCLC-97TM1
Procedure, shortened: as §1

BEN = test system: BEN
Procedure, shortened: as §1

LK-2 = test system: LK-2
Procedure, shortened: as §1

NCI-H358 = test system: NCI-H358
Procedure, shortened: as §1

NCI-H1734 = test system: NCI-H1734
Procedure, shortened: as §1

SK-MES-1 = test system: SK-MES-1
Procedure, shortened: as §1

HCC-827 = test system: HCC-827
Procedure, shortened: as §1

ChaGo-K-1 = test system: ChaGo-K-1
Procedure, shortened: as §1

EKVX = test system: EKVX
Procedure, shortened: as §1

COR-L 105 = test system: COR-L 105
Procedure, shortened: as §1

LOU-NH91 = test system: LOU-NH91
Procedure, shortened: as §1

EMC-BAC-2 = test system: EMC-BAC-2
Procedure, shortened: as §1

`Cc1cnc(-c2cnc(NCCNc3ccc(C#N)cn3)nc2-c2ccc(Cl)cc2Cl)[nH]1` + CCNC(=O)c1noc(-c2cc(C(C)C)c(O)cc2O)c1-c1ccc(CN2CCOCC2)cc1 [Luminespib] (partner 0.01 µM) showed a relative viability (NCI-H1792; first compound 0.08 µM) of 0.668, a relative viability (NCI-H1792; first compound 0.253 µM) of 0.432 and a relative viability (NCI-H1792; first compound 0.8 µM) of 0.493. It also gave a relative viability (NCI-H1792; first compound 2.53 µM) of 0.392, a relative viability (NCI-H2087; first compound 0.08 µM) of 0.128 and a relative viability (NCI-H2087; first compound 0.253 µM) of 0.128. The relative viability (NCI-H2087; first compound 0.8 µM) was 0.208, the relative viability (NCI-H2087; first compound 2.53 µM) was 0.175 and the relative viability (SW 1573; first compound 0.08 µM) was 0.162. It also gave a relative viability (SW 1573; first compound 0.253 µM) of 0.277, a relative viability (SW 1573; first compound 0.8 µM) of 0.344 and a relative viability (SW 1573; first compound 2.53 µM) of 0.234. For the same compound, the relative viability (NCI-H1650; first compound 0.08 µM) was 0.195, the relative viability (NCI-H1650; first compound 0.253 µM) was 0.207 and the relative viability (NCI-H1650; first compound 0.8 µM) was 0.164. It also gave a relative viability (NCI-H1650; first compound 2.53 µM) of 0.193, a relative viability (NCI-H2126; first compound 0.08 µM) of 1.11 and a relative viability (NCI-H2126; first compound 0.253 µM) of 0.861. It also gave a relative viability (NCI-H2126; first compound 0.8 µM) of 0.966, a relative viability (NCI-H2126; first compound 2.53 µM) of 0.903 and a relative viability (LU99A; first compound 0.08 µM) of 0.243. The relative viability (LU99A; first compound 0.253 µM) was 0.382, the relative viability (LU99A; first compound 0.8 µM) was 0.261 and the relative viability (LU99A; first compound 2.53 µM) was 0.234. It also gave a relative viability (NCI-H1944; first compound 0.08 µM) of 0.831, a relative viability (NCI-H1944; first compound 0.8 µM) of 0.861 and a relative viability (NCI-H1944; first compound 2.53 µM) of 0.678. For the same compound, the relative viability (NCI-H727; first compound 0.08 µM) was 0.272, the relative viability (NCI-H727; first compound 0.253 µM) was 0.345 and the relative viability (NCI-H727; first compound 0.8 µM) was 0.362. The relative viability (NCI-H727; first compound 2.53 µM) was 0.337, the relative viability (RERF-LC-KJ; first compound 0.08 µM) was 1.23 and the relative viability (RERF-LC-KJ; first compound 0.253 µM) was 1.12. It also gave a relative viability (RERF-LC-KJ; first compound 0.8 µM) of 1.27, a relative viability (RERF-LC-KJ; first compound 2.53 µM) of 1.32 and a relative viability (EPLC-272H; first compound 0.08 µM) of 0.308. The relative viability (EPLC-272H; first compound 0.253 µM) was 0.313, the relative viability (EPLC-272H; first compound 0.8 µM) was 0.209 and the relative viability (EPLC-272H; first compound 2.53 µM) was 0.192. It also gave a relative viability (LCLC-97TM1; first compound 0.08 µM) of 0.748, a relative viability (LCLC-97TM1; first compound 0.8 µM) of 0.959 and a relative viability (LCLC-97TM1; first compound 2.53 µM) of 0.787. The relative viability (BEN; first compound 0.08 µM) was 0.338, the relative viability (BEN; first compound 0.253 µM) was 0.612 and the relative viability (BEN; first compound 0.8 µM) was 0.702. For the same compound, the relative viability (BEN; first compound 2.53 µM) was 0.501, the relative viability (LK-2; first compound 0.08 µM) was 0.197 and the relative viability (LK-2; first compound 0.253 µM) was 0.227. For the same compound, the relative viability (LK-2; first compound 0.8 µM) was 0.239, the relative viability (LK-2; first compound 2.53 µM) was 0.205 and the relative viability (NCI-H358; first compound 0.08 µM) was 0.24. For the same compound, the relative viability (NCI-H358; first compound 0.253 µM) was 0.317, the relative viability (NCI-H358; first compound 0.8 µM) was 0.283 and the relative viability (NCI-H358; first compound 2.53 µM) was 0.0322. For the same compound, the relative viability (NCI-H1734; first compound 0.08 µM) was 0.208, the relative viability (NCI-H1734; first compound 0.253 µM) was 0.199 and the relative viability (NCI-H1734; first compound 0.8 µM) was 0.144. The relative viability (NCI-H1734; first compound 2.53 µM) was 0.23, the relative viability (SK-MES-1; first compound 0.08 µM) was 0.859 and the relative viability (SK-MES-1; first compound 0.253 µM) was 0.757. The relative viability (SK-MES-1; first compound 0.8 µM) was 0.838, the relative viability (SK-MES-1; first compound 2.53 µM) was 0.921 and the relative viability (HCC-827; first compound 0.08 µM) was 0.719. For the same compound, the relative viability (HCC-827; first compound 0.8 µM) was 0.752, the relative viability (HCC-827; first compound 2.53 µM) was 0.564 and the relative viability (ChaGo-K-1; first compound 0.08 µM) was 0.622. It also gave a relative viability (ChaGo-K-1; first compound 0.253 µM) of 0.608, a relative viability (ChaGo-K-1; first compound 0.8 µM) of 0.603 and a relative viability (ChaGo-K-1; first compound 2.53 µM) of 0.538. For the same compound, the relative viability (EKVX; first compound 0.08 µM) was 0.85, the relative viability (EKVX; first compound 0.253 µM) was 0.824 and the relative viability (EKVX; first compound 0.8 µM) was 0.911. It also gave a relative viability (EKVX; first compound 2.53 µM) of 0.88, a relative viability (COR-L 105; first compound 0.08 µM) of 0.846 and a relative viability (COR-L 105; first compound 0.253 µM) of 0.648. It also gave a relative viability (COR-L 105; first compound 0.8 µM) of 0.696, a relative viability (COR-L 105; first compound 2.53 µM) of 0.654 and a relative viability (LOU-NH91; first compound 0.08 µM) of 0.367. For the same compound, the relative viability (LOU-NH91; first compound 0.253 µM) was 0.369, the relative viability (LOU-NH91; first compound 0.8 µM) was 0.322 and the relative viability (LOU-NH91; first compound 2.53 µM) was 0.376. It also gave a relative viability (EMC-BAC-2; first compound 0.08 µM) of 1.25, a relative viability (EMC-BAC-2; first compound 0.253 µM) of 1.05 and a relative viability (EMC-BAC-2; first compound 0.8 µM) of 1.23. The relative viability (EMC-BAC-2; first compound 2.53 µM) was 1.09.
